Laboratory results from patent US20240228465A1, “SUBSTITUTED PYRIDINE N-OXIDE DERIVATIVES USEFUL AS A FACTOR XIA INHIBITORS” (Janssen Pharmaceutica NV, priority 2021, published 2024).
Where two headings read alike, the source gives them in different places.

Assays:
human plasma kallikrein = human plasma kallikrein (Homo sapiens, UniProt P03952); test: Kallikrein inhibition assay utilizing a quenched AMC peptide substrate (FLINT); type: biochemical
Procedure: Biological Example 2: Kallikrein Inhibition Assay Utilizing a Quenched AMC Peptide Substrate
A fluorescence intensity (FLINT) based assay was used to monitor inhibition of human plasma kallikrein. The peptide substrate, Z-Gly-Pro-Arg-AMC (Purchased from Bachem; Catalog #I-1150) was chosen based on its relatively low KM for kallikrein which enables running the assay at lower substrate concentrations to control background fluorescence. The kinetic parameters for this substrate were determined by fitting titration data to the Michaelis-Menten equation yielding a KM=40 μm, kcat=0.76 s^−1, and kcat/KM=18932 M^−1s^−1.
The Kallikrein FLINT assay was used with the following Z-Gly-Pro-Arg-AMC assay buffer: 50 mM Tris, pH 7.5, 100 mM NaCl, 5 mM CaCl2, 0.1 mg/mL BSA, 0.03% CHAPS. Assay buffer was prepared by mixing all ingredients fresh. 2× Z-Gly-Pro-Arg-AMC peptide substrate was prepared by diluting 10 mM stock into 1× assay buffer for a 100 μM working concentration (50 μM final concentration). The 2× kallikrein stock solution was prepared by diluting 14.76 μM stock in 1× assay buffer for a 4 nM working stock solution (2 nM final concentration).
Test compound(s) were run in an 11-point, 3-fold serial dilution with a final top compound concentration of 1 μM. Final DMSO in assay was 2%. Plasma kallikrein was pre-incubated for 30-minute with compound and then 50 μM substrate was added to initiate the reaction. The assay was run with either end point (EP) reads at 30 min or kinetic (KIN) reads at 5 min intervals over 30 minutes. The time course was linear using 2 nM kallikrein greater than 30 minutes. More specifically, the assay was run as follows: • 100 nL of 0.1 mM test compound was dispensed into black 384-well non-binding Greiner BioOne 784900 plate for 1 μM final concentration; • 5 μL of 1× assay buffer was dispensed to columns 24 (low control) and 5 μL 2× human kallikrein enzyme solution was dispensed to columns 1-23 (column 23 high control); • the plate was centrifuged with a “cover” plate at 500 rpm for 1 min • the plate was pre-incubated for 30 minutes at room temperature with plate covered; • 5 μL of 2× Z-Gly-Pro-Arg-AMC peptide substrate was dispensed into the entire plate, columns 1-24; • the plate was centrifuged with a “cover” plate at 500 rpm for 1 min; • the plate was read monitoring fluorescence intensity on the BMG PHERAStar at room temperature, using fluorescence module 340 nm/440 nm.
(§1) Percent inhibition (IC50) curves were generated per compound tested, and data was analyzed using a 4-parameter logistic fit using GeneData Screener. The relative fluorescence unit (RFU) values were normalized to percent inhibition using the following equation:
% inhibition=((HC−LC)−(compound−LC)/(HC−LC))*100 • where LC—low control=mean signal of human kallikrein enzyme or 100% inhibition of human kallikrein enzyme; HC—high control=mean signal of Factor XIa+Z-Gly-Pro-Arg-AMC peptide substrate with DMSO only.
(§2) An 11-point dose response curve for the test compound(s) was generated using GENDATA to determine IC50 value based on the following equation:
Y=Bottom+(Top−Bottom)/(1+10^((log IC50−X)*HillSlope)) • where Y is the % inhibition in the presence of X inhibitor concentration, Top=high control=mean signal of human kallikrein enzyme+Z-Gly-Pro-Arg-AMC peptide substrate with DMSO only; Bottom=low control—mean signal of no human kallikrein enzyme or 100% inhibition of human kallikrein enzyme; HillSlope—Hill coefficient; and IC50=concentration of compound with 50% inhibition in relation to top/high control.
Representative compounds of formula (I) of the present invention were tested according to the procedure described in Biological Example 1 and Biological Example 2 above, with results as listed in Table 3, below. Results listed in the (ER) column were measured using endpoint reads where a single fluorescence reading was measured for each well at a 30 min timepoint. […]

Factor XIa = Factor XIa (Homo sapiens, UniProt P03951); test: Factor XIa inhibition assay utilizing a fluorophore-quencher pair peptide substrate (FLINT); type: biochemical; details: 30 min preincubation
Excerpt: Biological Example 1: Factor XIa Inhibition Assay Utilizing a Fluorophore-Quencher Pair Peptide Substrate
A fluorescence intensity (FLINT) based assay was used to monitor inhibition of Factor XIa. The peptide substrate, 5Fam-KLTRAETV-K5Tamra (purchased from New England Peptide) was chosen based on the […]. Conversion of zymogen […]. The custom peptide used in this assay was based on the Arg146 cleavage site of FXI. The peptide substrate was designed with a fluorophore-quencher pair, where the fluorescence is quenched until FXIa cleaves the 8-mer peptide after the Arg residue. The substrate KM was fit to a substrate inhibition model whereby kcat=0.86 s^−1, KM=12.4 μM, Ki=61.6 μM with an enzymatic efficiency, and kcat/KM=69523 M^−1s^−1.
The Factor XIa FLINT assay was used with the following 5Fam-KLTRAETV-K5Tamra assay buffer: 50 mM Tris, pH 7.5, 100 mM NaCl, 5 mM CaCl2, 0.1 mg/mL BSA, 0.03% CHAPS. Assay buffer was prepared by mixing all ingredients fresh. 5Fam-KLTRAETV-K5Tamra peptide substrate was first prepared at 10 mM in 100% DMSO, then diluted to 3 mM in 100% DMSO. Assay buffer was then added directly to the 3 mM stock of substrate to prepare the 30 μM 2× working concentration (15 μM final concentration). The 2× Factor XIa stock solution was prepared by diluting 6.562 μM stock in 1× assay buffer for a […].
Test compound(s) were run in an 11-point, 3-fold serial dilution with a final top compound concentration of 100 nM. Final DMSO in assay was 2%. FXIa was preincubated with compound for 30-minutes and then substrate was added to initiate the reaction. The assay was run with either end point (EP) reads at 30 min or kinetic (KIN) reads at 5 min intervals over 30 minutes. The time course was linear using 100 μM FXIa greater than 30 minutes. More specifically, the assay was run as follows: • 100 nL of 0.01 mM test compound was dispensed into black 384-well non-binding Greiner BioOne 784900 plate for 0.1 μM final concentration; • 5 μL of 1× assay buffer was dispensed to column 24 (low control) and 5 μL 2× Factor XIa solution was dispensed to columns 1-23 (column 23 high control); • the plate was centrifuged with a “cover” plate at 500 rpm for 1 min • the plate was pre-incubated for 30 minutes at room temperature with plate covered; • 5 μL of 2× 5Fam-KLTRAETV-K5Tamra peptide substrate was dispensed into the entire plate, columns 1-24; • the plate was centrifuged with a “cover” plate at 500 rpm for 1 min; • the plate was read monitoring fluorescence intensity on the BMG PHERAStar at room temperature, using fluorescence module 485 nm/520 nm.
as §1
[formula] • where LC—low control=mean signal of no Factor XIa or 100% inhibition of Factor XIa; HC—high control=mean signal of Factor XIa+5Fam-KLTRAETV-K5Tamra peptide substrate with DMSO only.
as §2
[formula] • where Y is the % inhibition in the presence of X inhibitor concentration, Top=high control=mean signal of Factor XIa+5Fam-KLTRAETV-K5Tamra peptide substrate with DMSO only; Bottom=low control—mean signal of no Factor XIa or 100% inhibition of Factor XIa; HillSlope—Hill coefficient; and IC50=concentration of compound with 50% inhibition in relation to top/high control.
Representative compounds of formula (I) of the present invention were tested according to the procedure described in Biological Example 1 and Biological Example 2 above, with results as listed in Table 3, below. […]

[1] = kinetic reads at 5 min intervals over 30 min, 30 min preincubation, read-out: Kallikrein (KIN) IC50
[2] = kinetic reads at 5 min intervals over 30 min, read-out: FXIa (KIN) IC50
[3] = kinetic reads, unit μM, read-out: Kallikrein (KIN) IC50
[4] = end point read at 30 min, 30 min preincubation, read-out: Kallikrein (EP) IC50
[5] = end point read at 30 min, read-out: FXIa (EP) IC50

Factor XIa, sequence (P03951 388-625 limits assumed): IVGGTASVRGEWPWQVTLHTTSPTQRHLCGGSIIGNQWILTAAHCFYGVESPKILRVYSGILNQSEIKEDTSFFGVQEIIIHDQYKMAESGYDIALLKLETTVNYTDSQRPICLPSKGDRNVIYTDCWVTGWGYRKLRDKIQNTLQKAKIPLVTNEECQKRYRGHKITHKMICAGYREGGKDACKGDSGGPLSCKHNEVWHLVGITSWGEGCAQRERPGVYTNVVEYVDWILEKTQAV
Factor XIa, sequence (P03951 19-387 partner limits assumed): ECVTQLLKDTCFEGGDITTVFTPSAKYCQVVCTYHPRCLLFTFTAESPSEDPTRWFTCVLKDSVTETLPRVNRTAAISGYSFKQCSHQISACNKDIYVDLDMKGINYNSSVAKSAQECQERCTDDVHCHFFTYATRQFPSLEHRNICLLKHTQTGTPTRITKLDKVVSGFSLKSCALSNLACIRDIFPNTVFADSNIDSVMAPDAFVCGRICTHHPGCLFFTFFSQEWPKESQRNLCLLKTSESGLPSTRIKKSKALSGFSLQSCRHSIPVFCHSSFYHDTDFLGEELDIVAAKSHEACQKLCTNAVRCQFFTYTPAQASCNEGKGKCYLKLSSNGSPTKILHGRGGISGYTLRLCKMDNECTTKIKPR
human plasma kallikrein, sequence (P03952 391-638 limits assumed): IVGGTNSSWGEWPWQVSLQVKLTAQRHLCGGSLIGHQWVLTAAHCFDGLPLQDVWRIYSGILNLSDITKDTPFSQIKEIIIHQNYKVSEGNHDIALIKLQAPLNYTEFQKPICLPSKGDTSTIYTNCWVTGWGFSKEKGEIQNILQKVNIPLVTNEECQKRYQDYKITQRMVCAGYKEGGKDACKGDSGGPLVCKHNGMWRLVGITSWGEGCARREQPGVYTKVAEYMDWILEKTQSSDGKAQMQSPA
human plasma kallikrein, sequence (P03952 20-390 partner limits assumed): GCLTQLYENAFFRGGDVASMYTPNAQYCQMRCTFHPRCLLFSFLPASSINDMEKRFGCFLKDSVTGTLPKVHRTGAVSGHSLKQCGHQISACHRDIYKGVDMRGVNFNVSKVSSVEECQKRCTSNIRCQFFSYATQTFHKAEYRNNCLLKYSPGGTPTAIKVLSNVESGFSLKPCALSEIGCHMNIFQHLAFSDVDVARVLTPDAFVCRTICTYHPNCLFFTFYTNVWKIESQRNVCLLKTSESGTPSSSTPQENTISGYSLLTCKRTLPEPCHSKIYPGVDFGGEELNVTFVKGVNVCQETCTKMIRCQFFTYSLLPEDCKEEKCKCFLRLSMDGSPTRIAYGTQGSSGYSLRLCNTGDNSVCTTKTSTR

SMILES	IC50 (human plasma kallikrein; [1]) [µM]	IC50 (Factor XIa; [2]) [µM]	IC50 (human plasma kallikrein; [3]) [µM]	IC50 (human plasma kallikrein; [4]) [µM]	IC50 (Factor XIa; [5]) [µM]
CCC(c1ccc(-c2c(-n3cnnn3)ccc(Cl)c2F)c[n+]1[O-])n1cnc(-c2ccc(NC(=O)OC)cc2)c1 (racemic) [M4, 5-(3-Chloro-2-fluoro-6-(1H-tetrazol-1-yl)phenyl)-2-(1-(4-(4-((methoxycarbonyl)amino)phenyl)-1H-imidazol-1-yl)propyl)pyridine 1-oxide]	0.202	0.0121	–	–	–
[O-][n+]1cc(-c2c(-n3cnnn3)ccc(Cl)c2F)ccc1[C@H](CCOC(F)F)n1cnc(-c2cnnn2C(F)F)c1 [M13, (S)-5-(3-Chloro-2-fluoro-6-(1H-tetrazol-1-yl)phenyl)-2-(3-(difluoromethoxy)-1-(4-(1-(difluoromethyl)-1H-1,2,3-triazol-5-yl)-1H-imidazol-1-yl)propyl)pyridine 1-oxide]	–	> 0.2	> 2	–	–
Cn1ncnc1-c1cn(C(CCOC(F)F)c2ccc(-c3c(-n4cc(C(F)(F)F)nn4)ccc(Cl)c3F)c[n+]2[O-])nn1 (stereo not shown) [T7, 5-(3-Chloro-2-fluoro-6-(4-(trifluoromethyl)-1H-1,2,3-triazol-1-yl)phenyl)-2-(3-(difluoromethoxy)-1-(4-(1-methyl-1H-1,2,4-triazol-5-yl)-1H-1,2,3-triazol-1-yl)propyl)pyridine 1-oxide]	~0.334	~0.0023	–	–	–
[2H]C([2H])([2H])n1nccc1-c1cn(C(CCOC(F)F)c2ccc(-c3c(-n4cc(C(F)(F)F)nn4)ccc(Cl)c3F)c[n+]2[O-])cn1 (single isomer, unassigned) [M15, (R*)-5-(3-Chloro-2-fluoro-6-(4-(trifluoromethyl)-1H-1,2,3-triazol-1-yl)phenyl)-2-(3-(difluoromethoxy)-1-(4-(1-(methyl-d3)-1H-pyrazol-5-yl)-1H-imidazol-1-yl)propyl)pyridine 1-oxide]	–	> 0.1	> 1	–	–
Cn1nncc1-c1cn([C@@H](CC2CC2)c2ccc(-c3c(-n4cnnn4)ccc(Cl)c3F)c[n+]2[O-])nn1 [T5, (S)-5-(3-Chloro-2-fluoro-6-(1H-tetrazol-1-yl)phenyl)-2-(2-cyclopropyl-1-(3′-methyl-1H,3′H-[4,4′-bi(1,2,3-triazol)]-1-yl)ethyl)pyridine 1-oxide]	–	0.308	> 10	–	–
O=C(O)c1ccc(-c2cn(C(CC3CC3)c3ccc(-c4cc(Cl)ccc4-n4cnnn4)c[n+]3[O-])cn2)cc1 (stereo not shown) [M1, 2-(1-(4-(4-Carboxyphenyl)-1H-imidazol-1-yl)-2-cyclopropylethyl)-5-(5-chloro-2-(1H-tetrazol-1-yl)phenyl)pyridine 1-oxide]	–	–	–	0.306	0.0071
[O-][n+]1cc(-c2c(-n3cnnn3)ccc(Cl)c2F)ccc1[C@@H](CCOC(F)F)n1cnc(-c2cnnn2C(F)F)c1 [M14, (R)-5-(3-Chloro-2-fluoro-6-(1H-tetrazol-1-yl)phenyl)-2-(3-(difluoromethoxy)-1-(4-(1-(difluoromethyl)-1H-1,2,3-triazol-5-yl)-1H-imidazol-1-yl)propyl)pyridine 1-oxide]	0.029	0.0005	–	–	–
Cn1nncc1-c1cn([C@H](CCOC(F)F)c2ccc(-c3c(-n4cc(C(F)(F)F)nn4)ccc(Cl)c3F)c[n+]2[O-])cn1 [M10, (R)-5-(3-Chloro-2-fluoro-6-(4-(trifluoromethyl)-1H-1,2,3-triazol-1-yl)phenyl)-2-(3-(difluoromethoxy)-1-(4-(1-methyl-1H-1,2,3-triazol-5-yl)-1H-imidazol-1-yl)propyl)pyridine 1-oxide]	0.0489	0.0005	–	–	–
[O-][n+]1cc(-c2c(-n3cnnn3)ccc(Cl)c2F)ccc1C(Cc1ccc(F)cc1)n1cnc(-c2ccncc2)c1 (stereo not shown) [M5, 5-(3-Chloro-2-fluoro-6-(1H-tetrazol-1-yl)phenyl)-2-(2-(4-fluorophenyl)-1-(4-(pyridin-4-yl)-1H-imidazol-1-yl)ethyl)pyridine 1-oxide]	0.0017	0.0007	–	–	–
O=C(N[C@H]1C[C@H](O)C1)c1ccc(-c2cn(C(CC3CC3)c3ccc(-c4cc(Cl)ccc4-n4cnnn4)c[n+]3[O-])cn2)cc1 (mixture of isomers) [M2, 5-(5-Chloro-2-(1H-tetrazol-1-yl)phenyl)-2-(2-cyclopropyl-1-(4-(4-(((1R,3R)-3-hydroxycyclobutyl)carbamoyl)phenyl)-1H-imidazol-1-yl)ethyl)pyridine 1-oxide]	–	–	–	1.36	0.1
COC(=O)Nc1ccc(-c2cn(C(CC3CC3)c3ccc(-c4c(-n5cnnn5)ccc(Cl)c4F)c[n+]3[O-])nn2)cc1 (single isomer, unassigned) [T3, (R*)-5-(3-Chloro-2-fluoro-6-(1H-tetrazol-1-yl)phenyl)-2-(2-cyclopropyl-1-(4-(4-((methoxycarbonyl)amino)phenyl)-1H-1,2,3-triazol-1-yl)ethyl)pyridine 1-oxide]	0.269	0.0318	–	–	–
